According to publication PMC3573960 (Molecular Neurodegeneration, 2012):

Assays:
[1] = Measurement of EVP-0015962 in brain (LC-MS/MS); assay type: in vivo, mouse; details: for range of brain concentrations: C57BL/6 mice, 3 or 7 days; for concentration at 50 weeks: male, mouse, brain (cerebellum), oral
Experimental: Mice were placed on the food formulations for 3 or 7 days and were euthanized, as described above, approximately 1 h after the onset of the light cycle.
(§1) Male Tg2576 and WT mice were both derived from crosses of male Tg2576 mice and female B6SJLF1 mice (Taconic) and were singly housed upon arrival. […] Some animals were euthanized as described above. For histological studies, a subset of mice were euthanized by CO2 asphyxiation and transcardially perfused with cold 0.9% NaCl. […] The left cerebral hemisphere was cut into 2 pieces, weighed, and frozen.
Cerebellums were homogenized in a Mini-BeadBeater (Biospec Products, Inc., Bartlesville, OK).

COX-1 = biological target: T1, COX-1 (Homo sapiens, UniProt P23219); test: COX-1 enzyme assay (Cerep); assay type: biochemical; details: human recombinant, arachidonic acid 4 μM
T1 construct: purchased Cerep (Redmond, WA) 0726; host or cells: Sf9
T1 sequence (P23219 24-599): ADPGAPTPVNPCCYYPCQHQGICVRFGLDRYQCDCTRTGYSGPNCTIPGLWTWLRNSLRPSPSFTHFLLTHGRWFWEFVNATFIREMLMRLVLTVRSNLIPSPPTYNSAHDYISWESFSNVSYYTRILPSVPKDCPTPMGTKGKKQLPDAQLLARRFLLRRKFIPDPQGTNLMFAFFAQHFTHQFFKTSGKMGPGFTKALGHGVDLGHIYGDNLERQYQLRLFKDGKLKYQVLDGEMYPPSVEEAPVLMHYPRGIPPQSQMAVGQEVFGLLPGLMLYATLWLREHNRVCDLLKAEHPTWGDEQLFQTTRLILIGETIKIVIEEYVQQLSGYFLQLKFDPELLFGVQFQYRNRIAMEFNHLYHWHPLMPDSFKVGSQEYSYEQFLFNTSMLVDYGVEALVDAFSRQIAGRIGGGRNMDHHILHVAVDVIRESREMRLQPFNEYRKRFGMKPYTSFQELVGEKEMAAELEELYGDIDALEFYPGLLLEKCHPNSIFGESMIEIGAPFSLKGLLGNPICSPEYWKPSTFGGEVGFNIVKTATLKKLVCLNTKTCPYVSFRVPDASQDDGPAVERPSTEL
Experimental: COX-1 and COX-2 enzyme assays were performed by Cerep (Redmond, WA, Catalog # 0726 and 0727). Briefly, the assays used human recombinant Sf9 cells and arachidonic acid (4 μM for COX-1 and 2 μM for COX-2) as the substrate. Production of PGE2 was detected by enzyme immunoassay.

Tg2576 mice [2] = test: Chronic treatment of Tg2576 mice, sequentially extracted brain Aβ by ELISA; assay type: in vivo, mouse; details: 50 weeks
Text: as §1

Measured LogD = assay type: physicochemical
[3] = system: Aph1AL containing γ-secretase complexes; test: Cell-free γ-secretase assay, Aβ1-40 and Aβ1-42 by AlphaLisa; assay type: biochemical, murine
Text: DAPT was used as a reference positive control for the assay. For each assay condition, a 5-μL microsomal fraction, containing 1% CHAPSO (3-[(3-cholamidopropyl)dimethylammonio]-2-hydroxy-1-propanesulfonate) from murine embryonic fibroblasts (MEF) lacking the Aph-1A, Aph-1B, and Aph-1C genes [60] […] The other half of the reaction mixture was used to analyze the levels of Aβ1-40 and Aβ1-42 by AlphaLisa (Perkin Elmer, Waltham, MA).

Tg2576 mice [4] = test: Amorfix A4 assay of aggregated Aβ in Tg2576 mouse brain; assay type: in vivo; details: 50 weeks
Experimental: (§2) Male Tg2576 and WT mice were both derived from crosses of male Tg2576 mice and female B6SJLF1 mice (Taconic) and were singly housed upon arrival. […] Some animals were euthanized as described above. For histological studies, a subset of mice were euthanized by CO2 asphyxiation and transcardially perfused with cold 0.9% NaCl. The right hemispheres were immersion fixed in fresh 4% paraformaldehyde in 0.1 M phosphate buffer, pH 7.4 for 1 h, transferred to a 15% sucrose cryoprotectant for 24 h at room temperature, and on the next day, frozen in isopentane chilled by dry ice for 1 min. The left cerebral hemisphere was cut into 2 pieces, weighed, and frozen.
The A4 assay (Amorfix Life Sciences, Toronto, Canada) was employed to quantify levels of aggregated Aβ in Tg2576 mouse brains. […] Aβ was detected by immunoassay following incubation at 37°C with europium-fluorescent beads coupled to the mouse monoclonal 4G10 antibody (N-terminal Aβ, aa 1–17) and magnetic beads coupled to the antibodies 1F8 (C-terminal Aβ, aa 3–40) and 2H12 (C-terminal Aβ, aa 3–42). […] The intensity of the europium fluorescent signal was measured using time resolved fluorescence on each sample in triplicate and was taken as being directly proportional to the concentration of aggregated Aβ in the sample. […]

Tg2576 mice [5] = test: Western blot of APP species and total Aβ in Tg2576 mouse brain; assay type: in vivo; details: 50 weeks
Experimental: For determination of APP α- and β-CTFs in Tg2576 mouse brain, hemisphere samples were thawed in ice-cold homogenization buffer (150 mg of tissue/mL, 50 mM Tris and 150 mM NaCl, pH 7.4) with protease inhibitor cocktail (Mini Complete™, Roche Applied Science, Penzberg, Germany). Homogenized samples were spun at 435,000 g for 50 min at 4°C. The supernatant was discarded and the pellet resuspended in the same volume of homogenization buffer containing 0.5% Triton®-X 100, 1% deoxycholate, and 3% SDS. The pellets were triturated with a pipette until resuspended and incubated on a rotator for 1 h at 4°C. The samples were then centrifuged at 435,000 g for 50 min at 4°C and the detergent-soluble supernatant was collected. Protein concentration for membrane (detergent soluble) fraction was determined using the BCA method (Pierce, Rockford, IL). Thirty micrograms of total protein were separated on a Tricine 10-20% gel (Invitrogen) and transferred to a nitrocellulose membrane. Blots were probed with an anti-APP-CTF antibody (Sigma-Aldrich) or anti-Aβ antibody (clone 6E10) followed by incubation with IRDye secondary antibodies (Li-Cor Biosciences).
as §2

O=C(O)[C@H](CC1CCC1)c1cc(Cl)c(OCC(F)(F)F)c(-c2ccc(C(F)(F)F)cc2)c1 [EVP-0015962, (R)-2-(5-chloro-6-(2,2,2-trifluoroethoxy)-4’-(trifluoromethyl)biphenyl-3-yl)-3-cyclobutylpropanoic acid]
range of brain concentrations ([1]; food formulation 20 mg/kg/day): 1.5 to 3.1 µM
range of brain concentrations ([1]; food formulation 60 mg/kg/day): 4.9 to 9.7 µM
accumulation or cytochrome P450 enzyme induction (from brain concentrations) ([1]; Tg2576 mice, 50 weeks vs short-term treatments): did not demonstrate accumulation or cytochrome P450 enzyme induction
concentration at 50 weeks ([1]; Tg2576 mice, 20 mg/kg/day in food): 2.5 ± 0.2 µM
concentration at 50 weeks ([1]; Tg2576 mice, 60 mg/kg/day in food): 8.3 ± 0.6 µM
oral bioavailability ([1]; mice): orally bioavailable
IC50 (COX-1): > 10 µM
Aβ38 in the TBS soluble fraction (Tg2576 mice [2]; 20 mg/kg/day): did not produce a significant increase
percent reduction in Aβ42 in the TBS soluble fraction (Tg2576 mice [2]; 20 mg/kg/day): 53%
reduction in AβTotal in the formic acid extractable fraction (Tg2576 mice [2]; 20 mg/kg/day): 49%
reduction in formic acid extractable Aβ42 (Tg2576 mice [2]; 20 mg/kg/day): 53%
age-related increase in soluble and insoluble Aβ42 (Tg2576 mice [2]; 60 mg/kg/day): prevented the dramatic increase
increase in Aβ38 in the TBS soluble fraction (Tg2576 mice [2]; 60 mg/kg/day): 78%
percent reduction in Aβ42 in the TBS soluble fraction (Tg2576 mice [2]; 60 mg/kg/day): 89%
reduction in AβTotal in the formic acid extractable fraction (Tg2576 mice [2]; 60 mg/kg/day): 64%
reduction in formic acid extractable Aβ42 (Tg2576 mice [2]; 60 mg/kg/day): 86%
Aβ38 in the formic acid extractable fraction (Tg2576 mice [2]; 20 or 60 mg/kg/day): not significantly changed
AβTotal in the TBS soluble fraction (Tg2576 mice [2]; 20 or 60 mg/kg/day): unchanged
age-related increase in Aβ42 (Tg2576 mice [2]; lower dose (20 mg/kg/day)): partially effective
logD (Measured LogD): 3.88
levels of Aβ40 in the cell-free assay [3]: without affecting
reduction in aggregated Aβ (Tg2576 mice [4]; 20 mg/kg/day): 19%
reduction in aggregated Aβ compared to the control diet group (Tg2576 mice [4]; 60 mg/kg/day): 73%
reduction in total Aβ by Western blot vs control diet (Tg2576 mice [5]; 20 mg/kg/day): 42%
reduction in total Aβ by Western blot vs control diet (Tg2576 mice [5]; 60 mg/kg/day): 81%
levels of full length APP, β-CTF, and α-CTF in brain (Tg2576 mice [5]; 20 or 60 mg/kg/day): no increases
